Data taken from PubChem BioAssay (NCI).
Where “and” joins values, the source holds several entries; their conditions need not be identical. Equal entries are not always repeated.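 The compound was tested at five concentrations on cells cultured in 96-well plates, with a 48-hour exposure period. At the GI50, growth is halved. At the TGI there is no net growth.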

Columns and labels:
Test in all cases: NCI-60 cell line screen, 48 h
IGROV1 ovarian = tested on: IGROV1 ovarian
KM12 colon = tested on: KM12 colon
HT29 colon = tested on: HT29 colon
MOLT-4 leukemia = tested on: MOLT-4 leukemia
NCI/ADR-RES ovarian = tested on: NCI/ADR-RES ovarian
786-0 renal = tested on: 786-0 renal
NCI-H460 lung = tested on: NCI-H460 lung
SF-539 CNS = tested on: SF-539 CNS
SW-620 colon = tested on: SW-620 colon
UACC-257 melanoma = tested on: UACC-257 melanoma

Compound | TGI (IGROV1 ovarian) | TGI (KM12 colon) [µM] | TGI (HT29 colon) [µM] | TGI (MOLT-4 leukemia) [µM] | TGI (NCI/ADR-RES ovarian) [µM] | TGI (786-0 renal) [µM] | TGI (NCI-H460 lung) [µM] | TGI (SF-539 CNS) [µM] | TGI (SW-620 colon) [µM] | TGI (UACC-257 melanoma) [µM] | GI50 (IGROV1 ovarian) | GI50 (HT29 colon)
CN1CCN(C2CC(=O)c3c(Cl)sc(Cl)c32)CC1 (centres undefined) | > 25.6 µM | 30.9 | 33.7 | > 51.9 | > 59 | 21.8 | > 75.3 | 49.6 | 22.2 | > 61.5 |  | 
[O-][n+]1cc(SCc2ccccc2)ncc1SCc1ccccc1 | > 10 µM | > 10 | > 10 | > 10 | > 10 | > 10 | > 10 | > 10 |  | > 10 |  | 
CC(=O)OCC12C(OC(C)=O)C[C@@H](C)C3(CC(c4ccoc4)OC3=O)C1CCC(OC(C)=O)C21CO1 (some centres undefined) | > 100 µM | > 100 | > 100 | > 100 | > 100 | > 100 | > 100 | > 100 | > 100 | > 100 |  | 
C/C(=N\Nc1nc2ccccc2n1C)c1ccncn1 |  | 30.7 | 30.3 | > 100 | 0.458 | 20.3 | > 100 | 21.8 | > 47.6 | > 100 |  | 
COC1OC(=O)C(OC)C(OC)C1OC (centres undefined) | > 100 µM | > 100 | > 100 | > 100 | > 100 | > 100 | > 100 | > 100 | > 100 | > 100 |  | 
O=C(CSCC(=O)N/N=C\c1cccc(Br)c1)N/N=C\c1cccc(Br)c1 | 47 µM | 32.8 | 66.7 | 73 | 34.1 | 35.5 | 84.3 | 50.8 | 77.4 | 33.2 |  | 
COc1ccc(Cn2nc(OCc3ccccc3)c3cc([N+](=O)[O-])ccc32)cc1 | > 100 µM | > 100 | > 100 | > 100 | > 100 | > 100 | > 100 | > 100 | > 100 | > 100 |  | 
Nc1nn2cc(-c3ccccc3)[n+](CC(=O)c3ccccc3)c2s1 | > 100 µM | 47.1 | > 100 | 51.2 | > 100 | 40.2 | > 100 | 42.3 | 55.9 | 70.5 |  | 
COc1ccc2c(-c3csc(-c4c[nH]c5ccccc45)n3)c[nH]c2c1 | > 58.2 µM | 14.8 | 7.32 | 19.8 | > 81.6 | 18.2 | 13.7 | 65.5 | > 100 | > 90.6 |  | 
CCOC(=O)N1c2c(c3ccccc3n2C(=O)OCC)C(=O)C(OC)N1C(=O)OCC (centres undefined) | > 100 µM | 38.9 | 85.5 | 50.8 | 62.1 | > 100 | > 100 | 74.7 | > 100 | > 100 |  | 
CCOC(=O)c1sc2[n+](c1C)C(=O)/C(=C/c1ccccc1Cl)S2 | 23.3 µM | 18.2 | 28.9 | 15 | 16.1 | 26.1 | 6.44 | 15.2 | 46.5 | > 70.2 |  | 
C[S+](C)C1(c2ccccc2)C(=O)c2ccccc2C1=O | > 100 µM | > 100 | > 100 | > 100 | > 100 | > 100 | > 100 | > 68.1 | > 100 | > 100 |  | 
Cc1nc2cccc(F)c2c(=O)n1-c1nnc(C2CC2)s1 | > 10 µM | > 10 | > 10 | > 10 | > 10 | > 10 | > 10 | > 10 | > 10 | > 10 |  | 
Cn1c(-c2cccs2)cc(-c2ccsc2)c1-c1ccsc1 | > 100 µM | > 100 | > 100 | > 100 | > 100 | > 100 | > 100 | > 100 | > 100 | > 100 |  | 
Cc1cc(C)c(N)c(CO)c1 | 33.3 µM and 46.9 µM | > 100 | > 100 | > 100 | > 100 | > 100 | > 100 | > 100 | > 100 | > 100 | 4.25 µM and 10.2 µM | 12.5 µM and 38.2 µM
N#Cc1nc(-c2ccccn2)c(-c2ccccn2)nc1C#N | 22.2 µM | 11.6 | 14.4 | > 30.6 | 8.5 | 6.28 | > 35.1 | 21.5 | > 43.5 | 14.7 |  | 

Compound | TGI (IGROV1 ovarian) | TGI (KM12 colon) [µM] | TGI (HT29 colon) [µM] | TGI (MOLT-4 leukemia) [µM] | TGI (NCI/ADR-RES ovarian) [µM] | TGI (786-0 renal) [µM] | TGI (NCI-H460 lung) [µM] | TGI (SF-539 CNS) [µM] | TGI (SW-620 colon) [µM] | TGI (UACC-257 melanoma) [µM] | GI50 (IGROV1 ovarian) | GI50 (HT29 colon)
Oc1[nH]c2ccccc2c1N=NC(=S)NCc1ccccn1 | 13.9 µM | 19.6 | > 43 | 4.9 | > 23.3 | 13.6 | 11.4 | 5.06 | 22.3 | 13.7 |  | 
CC(=O)N1C(=O)/C(=C\C(=O)c2ccc(Cl)cc2)c2ccccc21 | 33.2 µM | 35.3 | 20.7 | 9.09 | 53.5 | 15.9 | 32.5 | 37.2 | 61.1 | 30.7 |  | 
Fc1sc2c(c1F)C1CCC2C1 (centres undefined) | > 100 µM | > 100 | > 100 | 86.8 | > 100 | > 100 | > 100 | > 100 | > 100 | > 100 |  | 
Cc1cccc2c1C(=O)/C(=C/c1ccccc1C(=O)O)C2 | > 100 µM | > 100 | > 100 | > 100 | > 100 | > 100 | > 100 | > 100 | > 100 | > 100 |  | 
Cc1cc(=O)oc2c(CN(CCCl)CCCl)c(O)ccc12 | > 100 µM | > 100 | > 100 | 98.8 | > 100 | > 100 | > 100 | > 100 | > 100 | > 100 |  | 
COc1ccc(C(OCC2OC(n3ccc(Oc4c(F)c(F)c(F)c(F)c4F)nc3=O)CC2OP(OCCC#N)N(C(C)C)C(C)C)(c2ccccc2)c2ccc(OC)cc2)cc1 (centres undefined) | > 100 µM | > 100 | > 100 | > 100 | > 100 | > 100 | > 100 | > 100 | > 100 | > 100 |  | 
CCOC(=O)C1=C(C)N(c2ccc(Cl)cc2)C2(O)C=CC(=O)C3C(=O)N(c4ccccc4)C(=O)C132 (centres undefined) | 3.11 µM | 3.52 | 3.18 | 3.72 | 6.72 | 3.09 | 4.97 | 9.4 | 3.68 | 6.76 |  | 
C(=N\Nc1nnc(-c2nnc(N/N=C/c3ccccc3)o2)o1)/c1ccccc1 | > 10 µM | > 10 | > 10 | > 10 | > 10 | > 10 | > 10 | > 10 | > 10 | > 10 |  | 
C=C1CC2C[C@H](OS(=O)(=O)c3ccc(C)cc3)C(C1)N2C (some centres undefined) | > 100 µM | > 100 | > 100 | > 100 | > 100 | > 100 | > 100 | > 100 | > 100 | > 100 |  | 
Cc1cnc2[nH]c(-c3sccc3C)cc(=O)c2c1 | > 100 µM | > 51.3 | 10.3 | > 84.5 | > 100 | > 100 | > 100 | > 91.6 | > 100 | > 100 |  | 
CN1C(=O)[C@](C)(Cc2ccc(F)cc2)N(C(=O)OC(C)(C)C)[C@@H]1C(C)(C)C | > 100 µM | > 100 | 45.6 | 40.6 | 44.8 | 68.4 | > 100 | > 100 | > 100 | 92.3 |  | 
CC1CN=C(N(C(=O)Nc2ccccc2)C2CCCCC2)S1 (centres undefined) | 35.6 µM | 36.3 | 32.9 | 38.8 | 33.3 | 31.4 | 33.9 | 43.2 | 28.5 | 30.2 |  | 
Nc1nc(Cl)cc(NCC2CC(O)(CO)C2)n1 (centres undefined) | > 100 µM | > 100 | > 100 | > 100 | > 100 | > 100 | > 100 | > 100 | > 100 | > 100 |  | 
COc1ccc(C2CCc3c(cnc4nc(N)nc(N)c34)C2)cc1 (centres undefined) | > 100 µM | > 100 | > 100 | > 100 | > 100 | 26.8 | > 100 | > 100 | > 100 | > 100 |  | 
CC(C)c1cc(C(C)C)c(B(c2ccccc2)c2ccccc2)c(C(C)C)c1Br | > 100 µM | > 100 | > 100 | > 100 | > 100 | > 100 | > 100 | > 100 | > 100 | > 100 |  | 
N#CC(NNC(=O)c1c(Cl)c(Cl)c(Cl)c(Cl)c1-c1nc2ccc(C(=O)c3ccccc3)cc2[nH]1)c1cccc(Oc2ccccc2)c1 (centres undefined) | 93.1 µM | > 100 | > 100 | > 100 | 57.1 | 51.4 |  | 43.4 | > 100 | > 100 |  | 
